The EC50 is the concentration giving half of the maximal effect.

This experiment relates to Nrf2 transcriptional activity (pARE-Luc reporter) in HepG2 cells. Description: In vitro Nrf2 transcriptional activity measurement by ARE-dependent reporter assay in HepG2 cell. The settings on record: Homo sapiens; HepG2 cells transfected with pARE-Luc, 4 hours at 37° C.; luciferase activity of Example 1-54 or Example 17-23 at 3.75 μM defined as 100%. The experiment is classed as cell-based, human. The procedure, abridged: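 HepG2 cells transfected with pGL4.37 (pARE-Luc), replated onto compound and incubated 4 h at 37° C; luciferase read by Bright-Glo luminescence. Response normalized to 100% set by a reference compound at 3.75 μM; EC50 from dose-response curve.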
`O=C(O)c1cc(F)c(-c2cccc3c2OCN(C(=O)c2c(Cl)cc(N4CCC5(CCOCC5)C4)cc2Cl)C3)cc1N1CCOCC1` [Compound 4-26, 4-[3-[2,6-Dichloro-4-(8-oxa-2-azaspiro[4.5]decan-2-yl)benzoyl]-2,4-dihydro-1,3-benzoxazin-8-yl]-5-fluoro-2-morpholin-4-ylbenzoic acid] had an EC50 of 8.2 nM.
For `O=C(O)c1cc(F)c(-c2cccc3c2OCN(C(=O)c2c(Cl)cc(N4CCC(CO)CC4)cc2Cl)C3)cc1N1CCOCC1` [Compound 4-27, 4-[3-[2,6-Dichloro-4-[4-(hydroxymethyl)piperidin-1-yl]benzoyl]-2,4-dihydro-1,3-benzoxazin-8-yl]-5-fluoro-2-morpholin-4-ylbenzoic acid], the response was half-maximal at 1.1 nM (EC50).
The compound `O=C(O)c1cc(F)c(-c2cccc3c2OCN(C(=O)c2c(Cl)cc(N4CC[C@@H](O)C4)cc2Cl)C3)cc1N1CCOCC1` [Compound 4-28, 4-[3-[2,6-Dichloro-4-[(3R)-3-hydroxypyrrolidin-1-yl]benzoyl]-2,4-dihydro-1,3-benzoxazin-8-yl]-5-fluoro-2-morpholin-4-ylbenzoic acid] registered an EC50 of 1.6 nM.
The result for `CC(C)(C)OC(=O)N1CCN(c2cc(Cl)c(C(=O)N3COc4c(cccc4-c4cc(N5CCOCC5)c(C(=O)O)cc4F)C3)c(Cl)c2)CC1` [Compound 4-29, 4-[3-[2,6-Dichloro-4-[4-[(2-methylpropan-2-yl)oxycarbonyl]piperazin-1-yl]benzoyl]-2,4-dihydro-1,3-benzoxazin-8-yl]-5-fluoro-2-morpholin-4-ylbenzoic acid] reads 2.1 nM.
With `COCC1CN(c2cc(Cl)c(C(=O)N3COc4c(cccc4-c4cc(N5CCOCC5)c(C(=O)O)cc4F)C3)c(Cl)c2)CCN1C` (centres unmarked) [Compound 4-30, 4-[3-[2,6-Dichloro-4-[3-(methoxymethyl)-4-methylpiperazin-1-yl]benzoyl]-2,4-dihydro-1,3-benzoxazin-8-yl]-5-fluoro-2-morpholin-4-ylbenzoic acid] the figure was 1.1 nM; with `CN1CCN(c2cc(Cl)c(C(=O)N3COc4c(cccc4-c4cc(N5CCOCC5)c(C(=O)O)cc4F)C3)c(Cl)c2)CC12CC2` [Compound 4-31, 4-[3-[2,6-Dichloro-4-(4-methyl-4,7-diazaspiro[2.5]octan-7-yl)benzoyl]-2,4-dihydro-1,3-benzoxazin-8-yl]-5-fluoro-2-morpholin-4-ylbenzoic acid], 1.2 nM; with `Cc1cc(-c2cccc3c2OCN(C(=O)c2c(Cl)cc(N4CCOCC4)cc2Cl)C3)cc(N2CCOCC2)c1C(=O)O` [Compound 4-32, 4-[3-(2,6-Dichloro-4-morpholin-4-ylbenzoyl)-2,4-dihydro-1,3-benzoxazin-8-yl]-2-methyl-6-morpholin-4-ylbenzoic acid], 6.9 nM.
With `O=C(O)c1cc(F)c(-c2cccc3c2OCN(C(=O)c2ccc(N4CC5(COC5)C4)cc2Cl)C3)cc1N1CCOCC1` [Compound 4-33, 4-[3-[2-Chloro-4-(2-oxa-6-azaspiro[3.3]heptan-6-yl)benzoyl]-2,4-dihydro-1,3-benzoxazin-8-yl]-5-fluoro-2-morpholin-4-ylbenzoic acid] the figure was 5.1 nM; with `O=C(O)c1cc(F)c(-c2cccc3c2OCN(C(=O)c2c(Cl)cc(OC[C@H]4CCCO4)cc2Cl)C3)cc1N1C2CCC1COC2` [Compound 4-34, 4-[3-[2,6-Dichloro-4-[[(2R)-oxolan-2-yl]methoxy]benzoyl]-2,4-dihydro-1,3-benzoxazin-8-yl]-5-fluoro-2-(3-oxa-8-azabicyclo[3.2.1]octan-8-yl)benzoic acid], 3.8 nM.
The compound `CC(C)(O)CCOc1cc(Cl)c(C(=O)N2COc3c(cccc3-c3cc(N4C5CCC4COC5)c(C(=O)O)cc3F)C2)c(Cl)c1` [Compound 4-35, 4-[3-[2,6-Dichloro-4-(3-hydroxy-3-methylbutoxy)benzoyl]-2,4-dihydro-1,3-benzoxazin-8-yl]-5-fluoro-2-(3-oxa-8-azabicyclo[3.2.1]octan-8-yl)benzoic acid] returned an EC50 of 20 nM.
The result for `O=C(O)c1cc(F)c(-c2cccc3c2OCN(C(=O)c2c(Cl)cc(OC[C@H]4CCOC4)cc2Cl)C3)cc1N1C2CCC1COC2` [Compound 4-38, 4-[3-[2,6-Dichloro-4-[[(3S)-oxolan-3-yl]methoxy]benzoyl]-2,4-dihydro-1,3-benzoxazin-8-yl]-5-fluoro-2-(3-oxa-8-azabicyclo[3.2.1]octan-8-yl)benzoic acid] reads 5.1 nM; that for `CCOc1cc(Cl)c(C(=O)N2COc3c(cccc3-c3cc(N4C5CCC4COC5)c(C(=O)O)cc3F)C2)c(Cl)c1` [Compound 4-39, 4-[3-(2,6-Dichloro-4-ethoxybenzoyl)-2,4-dihydro-1,3-benzoxazin-8-yl]-5-fluoro-2-(3-oxa-8-azabicyclo[3.2.1]octan-8-yl)benzoic acid], 6.9 nM; that for `COc1cc(Cl)c(C(=O)N2COc3c(cccc3-c3cc(N4C5CCC4COC5)c(C(=O)O)cc3F)C2)c(Cl)c1` [Compound 4-40, 4-[3-(2,6-Dichloro-4-methoxybenzoyl)-2,4-dihydro-1,3-benzoxazin-8-yl]-5-fluoro-2-(3-oxa-8-azabicyclo[3.2.1]octan-8-yl)benzoic acid], 8.9 nM.
Take `O=C(O)c1cc(F)c(-c2cccc3c2OCN(C(=O)c2c(Cl)cc(OCC4CCOCC4)cc2Cl)C3)cc1N1C2CCC1COC2` [Compound 4-41, 4-[3-[2,6-Dichloro-4-(oxan-4-ylmethoxy)benzoyl]-2,4-dihydro-1,3-benzoxazin-8-yl]-5-fluoro-2-(3-oxa-8-azabicyclo[3.2.1]octan-8-yl)benzoic acid]: the response was half-maximal at 4.7 nM (EC50).
Regarding `O=C(O)c1cc(F)c(-c2cccc3c2OCN(C(=O)c2c(Cl)cc(OC[C@@H]4COCCO4)cc2Cl)C3)cc1N1C2CCC1COC2` [Compound 4-42, 4-[3-[2,6-Dichloro-4-[[(2S)-1,4-dioxan-2-yl]methoxy]benzoyl]-2,4-dihydro-1,3-benzoxazin-8-yl]-5-fluoro-2-(3-oxa-8-azabicyclo[3.2.1]octan-8-yl)benzoic acid], the midpoint of the response, the EC50, lay at 4.4 nM.
In the case of `O=C(O)c1ccc(-c2cccc3c2OCN(C(=O)c2c(Cl)cc(OCCCCO)cc2Cl)C3)cc1N1CCOCC1` [Compound 4-43, 4-[3-[2,6-Dichloro-4-(4-hydroxybutoxy)benzoyl]-2,4-dihydro-1,3-benoxazin-8-yl]-2-morpholin-4-ylbenzoic acid], the midpoint of the response, the EC50, lay at 7.4 nM.
`CN(C)CCOc1cc(Cl)c(C(=O)N2COc3c(cccc3-c3ccc(C(=O)O)c(N4CCOCC4)c3)C2)c(Cl)c1` [Compound 4-44, 4-[3-[2,6-Dichloro-4-[2-(dimethylamino)ethoxy]benzoyl]-2,4-dihydro-1,3-benzoxazin-8-yl]-2-morpholin-4-ylbenzoic acid] displayed an EC50 of 16 nM.
With `CC(C)(O)CCOc1cc(Cl)c(C(=O)N2COc3c(cccc3-c3ccc(C(=O)O)c(N4CCOCC4)c3)C2)c(Cl)c1` [Compound 4-45, 4-[3-[2,6-Dichloro-4-(3-hydroxy-3-methylbutoxy)benzoyl]-2,4-dihydro-1,3-benzoxazin-8-yl]-2-morpholin-4-ylbenzoic acid] the figure was 10 nM.
The result for `Cn1cc(Oc2cc(Cl)c(C(=O)N3COc4c(cccc4-c4cc(N5CCOCC5)c(C(=O)O)cc4F)C3)c(Cl)c2)cn1` [Compound 4-46, 4-[3-[2,6-Dichloro-4-(1-methylpyrazol-4-yl)oxybenzoyl]-2,4-dihydro-1,3-benzoxazin-8-yl]-5-fluoro-2-morpholin-4-ylbenzoic acid] reads 14 nM; that for `COCCN1CCC(Oc2cc(Cl)c(C(=O)N3COc4c(cccc4-c4cc(N5CCOCC5)c(C(=O)O)cc4F)C3)c(Cl)c2)CC1` [Compound 4-47, 4-[3-[2,6-Dichloro-4-[1-(2-methoxyethyl)piperidin-4-yl]oxybenzoyl]-2,4-dihydro-1,3-benzoxazin-8-yl]-5-fluoro-2-morpholin-4-ylbenzoic acid], 3.3 nM.
`CN1CCC(COc2cc(Cl)c(C(=O)N3COc4c(cccc4-c4cc(N5CCOCC5)c(C(=O)O)cc4F)C3)c(Cl)c2)CC1` [Compound 4-48, 4-[3-[2,6-Dichloro-4-[(1-methylpiperidin-4-yl)methoxy]benzoyl]-2,4-dihydro-1,3-benzoxazin-8-yl]-5-fluoro-2-morpholin-4-ylbenzoic acid]: the EC50 was 2.6 nM.
Consider `O=C(O)c1cc(F)c(-c2cccc3c2OCN(C(=O)c2c(Cl)cc(OCCCN4CCOCC4)cc2Cl)C3)cc1N1CCOCC1` [Compound 4-49, 4-[3-[2,6-Dichloro-4-(3-morpholin-4-ylpropoxy)benzoyl]-2,4-dihydro-1,3-benzoxazin-8-yl]-5-fluoro-2-morpholin-4-ylbenzoic acid], for which the EC50 was 1.2 nM.
With `CN1CC[C@@H](Oc2cc(Cl)c(C(=O)N3COc4c(cccc4-c4cc(N5CCOCC5)c(C(=O)O)cc4F)C3)c(Cl)c2)C1` [Compound 4-50, 4-[3-[2,6-Dichloro-4-[(3R)-1-methylpyrrolidin-3-yl]oxybenzoyl]-2,4-dihydro-1,3-benzoxazin-8-yl]-5-fluoro-2-morpholin-4-ylbenzoic acid] the figure was 2.8 nM; with `O=C(O)c1cc(F)c(-c2cccc3c2OCN(C(=O)c2c(Cl)cc(OCCCCO)cc2Cl)C3)cc1N1CCOCC1` [Compound 4-51, 4-[3-[2,6-Dichloro-4-(4-hydroxybutoxy)benzoyl]-2,4-dihydro-1,3-benzoxazin-8-yl]-5-fluoro-2-morpholin-4-ylbenzoic acid], 2.6 nM.
In turn, `CN1CCC(Oc2cc(Cl)c(C(=O)N3COc4c(cccc4-c4cc(N5CCOCC5)c(C(=O)O)cc4F)C3)c(Cl)c2)CC1` [Compound 4-52, 4-[3-[2,6-Dichloro-4-(1-methylpiperidin-4-yl)oxybenzoyl]-2,4-dihydro-1,3-benzoxazin-8-yl]-5-fluoro-2-morpholin-4-ylbenzoic acid] came in with an EC50 of 1.1 nM.
Regarding `CN1CCCC(Oc2cc(Cl)c(C(=O)N3COc4c(cccc4-c4cc(N5CCOCC5)c(C(=O)O)cc4F)C3)c(Cl)c2)C1` (centres unmarked) [Compound 4-53, 4-[3-[2,6-Dichloro-4-(1-methylpiperidin-3-yl)oxybenzoyl]-2,4-dihydro-1,3-benzoxazin-8-yl]-5-fluoro-2-morpholin-4-ylbenzoic acid], a half-maximal effect (EC50) was put at 2.9 nM.

For the origin of these results see patent US20250171457A1, “NITROGEN-CONTAINING HETEROCYCLIC COMPOUND HAVING NRF2 ACTIVATION EFFECT” (CHUGAI SEIYAKU KABUSHIKI KAISHA, priority 2022, published 2025).
